Tests used:
thrombin = target: T1, thrombin (Homo sapiens, UniProt P00734); assay: Inhibition of thrombin in the solid-phase thrombin assay; format: biochemical; conditions: 80 min assay
T1 construct: additional factors necessary for cleavage of prothrombin to thrombin
Description: (§1) In the first assay, microtiter plates were coated with 150 μl per well of 50 μg/ml of fibrinogen in 10 mM Tris-acetate buffered saline, pH 7.6 (TABS) containing 10 mM EDTA overnight at 4° C. The solution was removed from the plate, and 100 μl of a 10 μg/ml solution of peroxidase-fibrinogen in 3.8 mg/ml bovine serum albumin (BSA) in TABS containing 10 mM calcium chloride was added to the well. 50 μl of thrombin diluted from 0.1 to 0.00078 NIH units/ml (30-0.25 ng/ml) was added to each well for various times from 0-160 min, after which the solution was washed from the plate. Peroxidase assay was performed using ortho-phenylenediamine as the indicator dye, with 11 min of incubation.
In the next assay, benzamidine and D-phenylalanyl-L-prolyl-L-arginine chloromethyl ketone (PPACK) were added to thrombin at the start of the assay. […] The percent inhibition can be calculated from the increased thrombin concentration required to obtain equivalent activity, as
% inhibition=100 * (1-To/Ti)
where To is the thrombin concentration yielding an O.D.=1 in the absence of inhibitor, and Ti is the thrombin concentration yielding an O.D.=1 in the presence of a given inhibitor concentration.

fibrinogen = assay: Thrombin assay: peroxidase-fibrinogen bound to fibrinogen-coated microtiter plate; format: biochemical, human; conditions: for [Thrombin] for O.D. = 1: unit not printed here (preceding table: NIH units/ml)
Description: This was prepared by the method of Nakane and Kawaoi (J. Histochem. Cytochem (1974) 22:1084) using 40 mg of horseradish peroxidase and 300 mg of human fibrinogen. The molar ratio of peroxidase to fibrinogen in the final product was 0.39. This was diluted with unlabeled fibrinogen to a concentration of 0.72 mg/ml of fibrinogen with a molar ratio of 0.12 moles of peroxidase per mole of fibrinogen, stored in 50% glycerol at -20° C.
as §1, with “incubation. Optical density was measured at 490 nm using a microtiter plate reader, with the following results:” for “incubation.”
Not only the endpoint (O.D.>2), but also the partial reaction ([…])can be used as a measure of thrombin activity. The penultimate value prior to the endpoint, or an approximate extrapolation to the concentration of thrombin yielding an O.D. value of 1 can be used to standardize this assay. For the above experiment, this value is reached at thrombin concentrations of: […]

Compound: N=C(N)c1ccccc1 [Benzamidine, benzamidine]
- % Inhibition (thrombin; [Benzamidine] 0.5 mM): 8%
- % Inhibition (thrombin; [Benzamidine] 1 mM): 41%
- % Inhibition (thrombin; [Benzamidine] 2 mM): 55%
- % Inhibition (thrombin; [Benzamidine] 5 mM): 75%
- % Inhibition (thrombin; [Benzamidine] 10 mM): 84%
- % Inhibition (thrombin; [Benzamidine] 20 mM): 97%

Compound: N=C(N)NCCC[C@H](NC(=O)[C@@H]1CCCN1C(=O)[C@H](N)Cc1ccccc1)C(=O)CCl [PPACK, D-phenylalanyl-L-prolyl-L-arginine chloromethyl ketone]
- % Inhibition (thrombin; [PPACK] .005 nM): 11%
- % Inhibition (thrombin; [PPACK] .01 nM): 19%
- % Inhibition (thrombin; [PPACK] .02 nM): 43%
- % Inhibition (thrombin; [PPACK] .05 nM): 62%
- % Inhibition (thrombin; [PPACK] .1 nM): 79%
- % Inhibition (thrombin; [PPACK] .2 nM): 83%
- % Inhibition (thrombin; [PPACK] .5 nM): 95%

Compound: Thrombin
- [Thrombin] for O.D. = 1 (fibrinogen; incubation time 10 min): > 0.03
- [Thrombin] for O.D. = 1 (fibrinogen; incubation time 20 min): 0.02
- [Thrombin] for O.D. = 1 (fibrinogen; incubation time 40 min): 0.005
- [Thrombin] for O.D. = 1 (fibrinogen; incubation time 80 min): 0.002
- [Thrombin] for O.D. = 1 (fibrinogen; incubation time 160 min): 0.0008
- Optical density at 490 nm (fibrinogen; thrombin .00026 NIH units/ml, incubation 0 min): 0.20
- Optical density at 490 nm (fibrinogen; thrombin .00026 NIH units/ml, incubation 10 min): 0.24
- Optical density at 490 nm (fibrinogen; thrombin .00026 NIH units/ml, incubation 20 min): 0.19
- Optical density at 490 nm (fibrinogen; thrombin .00026 NIH units/ml, incubation 40 min): 0.25
- Optical density at 490 nm (fibrinogen; thrombin .00026 NIH units/ml, incubation 80 min): 0.32
- Optical density at 490 nm (fibrinogen; thrombin .00026 NIH units/ml, incubation 160 min): 0.24
- Optical density at 490 nm (fibrinogen; thrombin .0005 NIH units/ml, incubation 0 min): 0.21
- Optical density at 490 nm (fibrinogen; thrombin .0005 NIH units/ml, incubation 10 min): 0.21
- Optical density at 490 nm (fibrinogen; thrombin .0005 NIH units/ml, incubation 20 min): 0.16
- Optical density at 490 nm (fibrinogen; thrombin .0005 NIH units/ml, incubation 40 min): 0.14
- Optical density at 490 nm (fibrinogen; thrombin .0005 NIH units/ml, incubation 80 min): 0.18
- Optical density at 490 nm (fibrinogen; thrombin .0005 NIH units/ml, incubation 160 min): 0.60
- Optical density at 490 nm (fibrinogen; thrombin .0010 NIH units/ml, incubation 0 min): 0.22
- Optical density at 490 nm (fibrinogen; thrombin .0010 NIH units/ml, incubation 10 min): 0.15
- Optical density at 490 nm (fibrinogen; thrombin .0010 NIH units/ml, incubation 20 min): 0.18
- Optical density at 490 nm (fibrinogen; thrombin .0010 NIH units/ml, incubation 40 min): 0.23
- Optical density at 490 nm (fibrinogen; thrombin .0010 NIH units/ml, incubation 80 min): 0.37
- Optical density at 490 nm (fibrinogen; thrombin .0010 NIH units/ml, incubation 160 min): 1.55
- Optical density at 490 nm (fibrinogen; thrombin .0021 NIH units/ml, incubation 0 min): 0.25
- Optical density at 490 nm (fibrinogen; thrombin .0021 NIH units/ml, incubation 10 min): 0.18
- Optical density at 490 nm (fibrinogen; thrombin .0021 NIH units/ml, incubation 20 min): 0.18
- Optical density at 490 nm (fibrinogen; thrombin .0021 NIH units/ml, incubation 40 min): 0.18
- Optical density at 490 nm (fibrinogen; thrombin .0021 NIH units/ml, incubation 80 min): 1.02
- Optical density at 490 nm (fibrinogen; thrombin .0021 NIH units/ml, incubation 160 min): > 2
- Optical density at 490 nm (fibrinogen; thrombin .0042 NIH units/ml, incubation 0 min): 0.23
- Optical density at 490 nm (fibrinogen; thrombin .0042 NIH units/ml, incubation 10 min): 0.22
- Optical density at 490 nm (fibrinogen; thrombin .0042 NIH units/ml, incubation 20 min): 0.26
- Optical density at 490 nm (fibrinogen; thrombin .0042 NIH units/ml, incubation 40 min): 0.87
- Optical density at 490 nm (fibrinogen; thrombin .0042 NIH units/ml, incubation 80 min): > 2
- Optical density at 490 nm (fibrinogen; thrombin .0042 NIH units/ml, incubation 160 min): > 2
- Optical density at 490 nm (fibrinogen; thrombin .0083 NIH units/ml, incubation 0 min): 0.30
- Optical density at 490 nm (fibrinogen; thrombin .0083 NIH units/ml, incubation 10 min): 0.42
- Optical density at 490 nm (fibrinogen; thrombin .0083 NIH units/ml, incubation 20 min): 0.40
- Optical density at 490 nm (fibrinogen; thrombin .0083 NIH units/ml, incubation 40 min): 1.67
- Optical density at 490 nm (fibrinogen; thrombin .0083 NIH units/ml, incubation 80 min): > 2
- Optical density at 490 nm (fibrinogen; thrombin .0083 NIH units/ml, incubation 160 min): > 2
- Optical density at 490 nm (fibrinogen; thrombin .017 NIH units/ml, incubation 0 min): 0.31
- Optical density at 490 nm (fibrinogen; thrombin .017 NIH units/ml, incubation 10 min): 0.30
- Optical density at 490 nm (fibrinogen; thrombin .017 NIH units/ml, incubation 20 min): 0.91
- Optical density at 490 nm (fibrinogen; thrombin .017 NIH units/ml, incubation 40 min): > 2
- Optical density at 490 nm (fibrinogen; thrombin .017 NIH units/ml, incubation 80 min): > 2
- Optical density at 490 nm (fibrinogen; thrombin .017 NIH units/ml, incubation 160 min): > 2
- Optical density at 490 nm (fibrinogen; thrombin .033 NIH units/ml, incubation 0 min): 0.41
- Optical density at 490 nm (fibrinogen; thrombin .033 NIH units/ml, incubation 10 min): 0.52
- Optical density at 490 nm (fibrinogen; thrombin .033 NIH units/ml, incubation 20 min): 1.24
- Optical density at 490 nm (fibrinogen; thrombin .033 NIH units/ml, incubation 40 min): > 2
- Optical density at 490 nm (fibrinogen; thrombin .033 NIH units/ml, incubation 80 min): > 2
- Optical density at 490 nm (fibrinogen; thrombin .033 NIH units/ml, incubation 160 min): > 2

— patent publication US4668621A, “Detecting blood clotting factors with immobilized fibrinogen and labeled fibrinogen” (Wake Forest University, priority 1985, dated 1987)
